Assay results reported in US7452896B2, “Pyrimidine-sulfamides and their use as endothelian receptor antagonist” (Actelion Pharmaceuticals Ltd., priority 2002, dated 2008).

Columns and labels:
[1] = biological target: T1, human recombinant ETA receptors (Homo sapiens, UniProt P25101); experiment: Inhibition of [125I]ET-1 binding to membranes of CHO cells expressing human recombinant ETA receptors
T1 construct: expressed in transfected cells; host or cells: CHO cells (microsomal membranes)
T1 sequence (P25101 21-427): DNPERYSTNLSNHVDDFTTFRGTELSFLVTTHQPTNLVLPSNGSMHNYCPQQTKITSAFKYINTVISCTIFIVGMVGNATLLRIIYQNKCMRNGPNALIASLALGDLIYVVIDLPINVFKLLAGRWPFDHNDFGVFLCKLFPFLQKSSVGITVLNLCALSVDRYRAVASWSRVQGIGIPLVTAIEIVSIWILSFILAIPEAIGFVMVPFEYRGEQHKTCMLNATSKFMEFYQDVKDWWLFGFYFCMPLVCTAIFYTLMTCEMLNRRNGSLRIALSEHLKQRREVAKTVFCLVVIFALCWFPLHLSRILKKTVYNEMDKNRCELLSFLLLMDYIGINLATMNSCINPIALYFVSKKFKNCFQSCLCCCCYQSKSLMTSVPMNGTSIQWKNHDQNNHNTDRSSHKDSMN
Procedure: (§1) 1) Inhibition of Endothelin Binding to Membranes from CHO Cells Carrying Human ET Receptors:
(§2) For competition binding studies, membranes of CHO cells expressing human recombinant ETA or ETB receptors were used. Microsomal membranes from recombinant CHO cells were prepared and the binding assay made as previously described (Breu V., et al, FEBS Lett 1993; 334:210).
(§3) The assay was performed in 200 uL 50 mM Tris/HCl buffer, pH 7.4, including 25 mM MnCl2, 1 mM EDTA and 0.5% (w/v) BSA in polypropylene microtiter plates. […] After 2 h, the membranes were filtered on filterplates containing GF/C filters (Unifilterplates from Canberra Packard S.A. Zürich, Switzerland). To each well, 50 uL of scintillation cocktail was added (MicroScint 20, Canberra Packard S.A. Zürich, Switzerland) and the filter plates counted in a microplate counter (TopCount, Canberra Packard S.A. Zürich, Switzerland).
(§4) All the test compounds were dissolved, diluted and added in DMSO.

[2] = biological target: T2, human recombinant ETB receptors (Homo sapiens, UniProt P24530); experiment: Inhibition of [125I]ET-1 binding to membranes of CHO cells expressing human recombinant ETB receptors
T2 construct: expressed in transfected cells; host or cells: CHO cells (microsomal membranes)
T2 sequence (P24530 27-442): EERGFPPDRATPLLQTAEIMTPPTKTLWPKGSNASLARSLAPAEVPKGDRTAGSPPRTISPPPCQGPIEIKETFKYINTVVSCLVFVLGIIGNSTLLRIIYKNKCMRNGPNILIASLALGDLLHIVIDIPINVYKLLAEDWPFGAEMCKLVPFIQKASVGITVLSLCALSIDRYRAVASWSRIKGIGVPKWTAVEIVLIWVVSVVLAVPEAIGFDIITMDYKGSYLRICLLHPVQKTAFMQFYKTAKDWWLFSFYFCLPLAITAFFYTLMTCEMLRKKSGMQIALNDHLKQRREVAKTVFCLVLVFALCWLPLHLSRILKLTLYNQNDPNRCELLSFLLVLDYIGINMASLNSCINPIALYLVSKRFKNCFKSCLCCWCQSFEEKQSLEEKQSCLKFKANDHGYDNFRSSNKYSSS
Procedure: as §1, §2, §3, §4

[3] = biological target: T3, ETA receptors (rat aortic rings) (Rattus norvegicus, UniProt P26684); experiment: Inhibition of endothelin-1-induced contraction on isolated rat aortic rings; conditions: read-out: pA2 value Aorta (converted)
T3 construct: The thoracic aorta or trachea were excised, dissected and cut in 3-5 mm rings; from tissue; host or cells: thoracic aorta rings of adult Wistar rats, endothelium removed
T3 sequence (P26684 21-426): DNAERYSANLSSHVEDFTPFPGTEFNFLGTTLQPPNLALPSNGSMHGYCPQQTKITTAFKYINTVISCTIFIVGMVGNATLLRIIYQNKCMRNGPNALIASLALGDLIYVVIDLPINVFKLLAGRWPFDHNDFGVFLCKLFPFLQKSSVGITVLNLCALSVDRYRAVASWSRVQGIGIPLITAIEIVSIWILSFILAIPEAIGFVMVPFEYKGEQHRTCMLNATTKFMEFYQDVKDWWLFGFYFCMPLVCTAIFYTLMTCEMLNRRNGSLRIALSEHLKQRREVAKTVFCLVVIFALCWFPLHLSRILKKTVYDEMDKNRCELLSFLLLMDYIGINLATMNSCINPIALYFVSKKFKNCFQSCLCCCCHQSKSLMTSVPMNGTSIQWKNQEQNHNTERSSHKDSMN
Procedure: (§5) 2) Inhibition of Endothelin-Induced Contractions on Isolated Rat Aortic Rings (ETA Receptors) and Rat Tracheal Rings (ETB Receptors):
(§6) The functional inhibitory potency of the endothelin antagonists was assessed by their inhibition of the contraction induced by endothelin-1 on rat aortic rings (ETA receptors) and of the contraction induced by sarafotoxin S6c on rat tracheal rings (ETB receptors). Adult Wistar rats were anesthetized and exsanguinated. The thoracic aorta or trachea were excised, dissected and cut in 3-5 mm rings. The endothelium/epithelium was removed by gentle rubbing of the intimal surface. Each ring was suspended in a 10 ml isolated organ bath filled with Krebs-Henseleit solution (in mM; NaCl 115, KCl 4.7, MgSO4 1.2, KH2PO4 1.5, NaHCO3 25, CaCl2 2.5, glucose 10) kept at 37° C. and gassed with 95% O2 and 5% CO2. The rings were connected to force transducers and isometric tension was recorded (EMKA Technologies SA, Paris, France). The rings were stretched to a resting tension of 3 g (aorta) or 2 g (trachea). […] The functional inhibitory potency of the test compound was assessed by calculating the concentration ratio, i.e. the shift to the right of the EC50 induced by different concentrations of test compound. […]

[4] = biological target: T4, ETB receptors (rat tracheal rings) (Rattus norvegicus, UniProt P21451); experiment: Inhibition of sarafotoxin S6c-induced contraction on isolated rat tracheal rings; conditions: contraction induced by sarafotoxin S6c, read-out: pA2 value Trachea (converted)
T4 construct: The thoracic aorta or trachea were excised, dissected and cut in 3-5 mm rings; from tissue; host or cells: tracheal rings of adult Wistar rats, epithelium removed
T4 sequence (P21451 27-442): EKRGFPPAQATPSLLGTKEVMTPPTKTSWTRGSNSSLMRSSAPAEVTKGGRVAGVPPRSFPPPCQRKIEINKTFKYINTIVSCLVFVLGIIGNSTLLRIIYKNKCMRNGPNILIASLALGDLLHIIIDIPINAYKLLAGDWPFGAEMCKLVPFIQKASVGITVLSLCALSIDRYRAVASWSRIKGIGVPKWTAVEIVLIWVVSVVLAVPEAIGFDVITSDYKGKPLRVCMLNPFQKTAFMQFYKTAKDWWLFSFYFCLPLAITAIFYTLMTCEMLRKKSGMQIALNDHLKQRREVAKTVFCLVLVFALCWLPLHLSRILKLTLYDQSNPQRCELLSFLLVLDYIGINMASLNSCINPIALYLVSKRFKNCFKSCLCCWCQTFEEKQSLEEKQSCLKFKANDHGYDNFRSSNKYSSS
Procedure: as §5, §6

| SMILES | IC50 [1] [nM] | IC50 [2] [nM] | Kb [3] [nM] | Kb [4] [nM] |
| --- | --- | --- | --- | --- |
| COCCNS(=O)(=O)Nc1ncnc(OCCOc2ncc(Br)cn2)c1Oc1cc(OC)ccc1Cl [Example 1, 2-methoxy-ethanesulfamic acid [6-[2-(5-bromo-pyrimidin-2-yloxy)-ethoxy]-5-(2-chloro-5-methoxy-phenoxy)-pyrimidin-4-yl]-amide] | 0.28 | 174 | 126 | 5130 |
| COCCNS(=O)(=O)Nc1ncnc(OCCOc2ncc(Br)cn2)c1-c1ccc(Br)cc1 [Example 2, 2-methoxy-ethanesulfamic acid {5-(4-bromophenyl)-6-[2-(5-bromopyrimidin-2-yloxy)-ethoxy]-pyrimidin-4-yl}-amide] | 0.22 | 222 | 3.31 | > 10000 |
| COCCNS(=O)(=O)Nc1ncnc(OCCOc2ncc(SC)cn2)c1-c1ccc(Br)cc1 [Example 3, 2-Methoxy-ethanesulfamic acid {5-(4-bromophenyl)-6-[2-(5-methylsulfanyl-pyrimidin-2-yloxy)-ethoxy]-pyrimidin-4-yl}-amide] | 0.2 | 120 |  |  |
| COCCNS(=O)(=O)Nc1ncnc(OCCOc2ncc(OC)cn2)c1-c1ccc(Br)cc1 [Example 4, 2-Methoxy-ethanesulfamic acid {5-(4-bromophenyl)-6-[2-(5-methoxypyrimidin-2-yloxy)-ethoxy]-pyrimidin-4-yl}-amide] | 1.27 | 560 |  |  |
